The subject of series [1] is Aspergillus Niger (ATCC 16404). Kind of series: Broth micro-dilution antifungal susceptibility test (MIC). Format: cell-based. The note with it: ATCC16404, 120 h, RPMI 1640 pH 7, five days at 35° C., geometric mean of two experiments. As for the experimental part: (§1) Trichophyton Rubrum (ATCC 28188, PBI International), Trichophyton Mentagrophytes (ATCC 9533, PBI International), Aspergillus Niger (ATCC 16404, PBI International), Scopulariopsis Brevicaulis (ATCC 36840, DSMZ), Candida Albicans (ATCC 90028, PBI International), Candida Glabrata (ATCC 90030, DSMZ).
(§2) Strains were prepared from freeze-dried ampoules or freeze-dried pellets. An isolation of the suspensions was made on Potato Dextrose Agar (PDA) to test the strains purity. A strains' massive growth was then made streaking microbial suspensions on PDA plates.
(§3) Incubation was at 30° C. for 48-72 hours (Candida yeasts) and for 7-10 days (filamentous fungi).
(§4) The yeasts' colonies and the filamentous fungi's conidia were harvested with 3-5 mL of RPMI 1640+50% glycerol and the aliquots frozen at −80° C.
(§5) Compounds' minimal inhibition concentration (MIC) was determined through broth micro-dilution susceptibility test using a method developed in agreement with the National Committee for Clinical Laboratory Standards (NCCLS) (National Committee for Clinical Laboratory Standards. Reference Method for Broth Dilution Antifungal Susceptibility Testing of Yeasts; Approved standard-Second Edition M27-A2. 2002; Vol. 22, No. 15) (National Committee for Clinical Laboratory Standards. Reference Method for Broth Dilution Antifungal Susceptibility Testing of Filamentous Fungi; Approved standard M38-A. 2002; Vol. 22, No. 16).
(§6) Assays were carried out in RPMI 1640 with L-glutamine medium buffered to pH 7 with 0.165M 3-(N-morpholino)propanesulfonic acid (MOPS) and 10M NaOH and supplemented with 18 g glucose/litre. The tests were performed using 96 well sterile plates (inoculum size of 1×10^5 CFU/mL). Compounds stock solutions were prepared at 12.8 mg/mL in 100% DMSO. A series of twofold dilutions were prepared in plate using RPMI 1640. Final concentrations ranged from 0.125 to 128 μg/mL at 1% DMSO.
(§7) MIC is defined as the lowest concentration of antifungal agent which prevents any visible growth and was determined after 48 h of incubation for yeasts (35° C.) and after five days of incubation for filamentous fungi (35° C.).
Background: Broth dilution looks for growth in wells or tubes with falling amounts of substance.

Series [2] relates to Candida Albicans (ATCC 90028). The description is as above. Format: cell-based. The note with it: ATCC90028, RPMI 1640 pH 7, 48 h at 35° C., geometric mean of two experiments. As for the experimental part:
as §1, §2, §3, §4, §5, §6, §7

Series [3] deals with Candida Glabrata (ATCC 90030). The description is as above. Format: cell-based. The note with it: Nakaseomyces glabratus, ATCC90030; RPMI 1640 pH 7, 48 h at 35° C.; geometric mean of two experiments. The method, then: as §1, §2, §3, §4, §5, §6, §7
Series [4] deals with Scopulariopsis Brevicaulis (ATCC 36840). Described as above. The note with it: ATCC36840, 120 h, RPMI 1640 pH 7, five days at 35° C., geometric mean of two experiments. Type of series: cell-based. As for the experimental part:
as §1, §2, §3, §4, §5, §6, §7

Series [5] concerns Trichophyton Mentagrophytes (ATCC 9533). Described as above. Format: cell-based. The note with it: ATCC9533, 120 h, RPMI 1640 pH 7, five days at 35° C., geometric mean of two experiments, read-out: MIC Tricophyton Mentagrophytes ATCC 9533. As for the experimental part:
as §1, §2, §3, §4, §5, §6, §7

The test system of series [6] is Trichophyton Rubrum (ATCC 28188). The description is as above. Type of series: cell-based. The note with it: ATCC28188, 120 h, RPMI 1640 pH 7, five days at 35° C., geometric mean of two experiments, read-out: MIC Trycophyton Rubrum ATCC 28188. As for the experimental part: as §1, §2, §3, §4, §5, §6, §7
The subject of series [7] is invasive aspergillosis. To be noted: daily administered at 10 mg/kg; cited from earlier work.

Converted amounts (≈) assume the structure as drawn.

Consider `O=C(c1ccc2cccnc2c1O)N1CCOc2ccccc21` [Example 74, (2H-Benzo[b][1,4]oxazin-4(3H)-yl)(8-hydroxyquinolin-7-yl)methanone], for which the minimum inhibitory concentration (MIC) (in general, the least concentration at which growth counts as inhibited) in series [1] turned out to be 0.18 µg/mL (≈ 0.588 µM); in series [2], 2 µg/mL (≈ 6.53 µM); in series [3] it was 2 µg/mL (≈ 6.53 µM); in series [4] it was 0.71 µg/mL (≈ 2.32 µM); in series [5], 1.41 µg/mL (≈ 4.6 µM); in series [6], 1 µg/mL (≈ 3.26 µM).

Take `O=C(c1ccc2cccnc2c1O)N1CCCc2c(F)cc(F)cc21` [Example 70, (5,7-Difluoro-3,4-dihydroquinolin-1(2H)-yl)(8-hydroxyquinolin-7-yl)methanone]: the MIC in series [1] turned out to be 0.25 µg/mL (≈ 0.735 µM); in series [2], 2 µg/mL (≈ 5.88 µM); in series [3] it was 1 µg/mL (≈ 2.94 µM); in series [4], 1 µg/mL (≈ 2.94 µM); in series [5], 2 µg/mL (≈ 5.88 µM); in series [6] it was 1 µg/mL (≈ 2.94 µM).

`O=C(c1ccc2cccnc2c1O)N1CCCc2ccc(F)cc21` [Example 61, (7-Fluoro-3,4-dihydroquinolin-1(2H)-yl)(8-hydroxyquinolin-7-yl)methanone]: the minimum inhibitory concentration (MIC) was found to be 0.25 µg/mL (≈ 0.776 µM) in series [1]; 2 µg/mL (≈ 6.2 µM) in series [2]; 2 µg/mL (≈ 6.2 µM) in series [3]; 0.71 µg/mL (≈ 2.2 µM) in series [4]; 2 µg/mL (≈ 6.2 µM) in series [5]; 1 µg/mL (≈ 3.1 µM) in series [6].

As to `O=C(c1ccc2cccnc2c1O)N1Cc2ccccc2C1` [Example 10, (8-Hydroxyquinolin-7-yl)(isoindolin-2-yl)methanone], the MIC stood at 0.25 µg/mL (≈ 0.861 µM) in series [1]; 2 µg/mL (≈ 6.89 µM) in series [2]; 2 µg/mL (≈ 6.89 µM) in series [3]; 2 µg/mL (≈ 6.89 µM) in series [4]; 2 µg/mL (≈ 6.89 µM) in series [5]; 1 µg/mL (≈ 3.44 µM) in series [6].

Regarding `O=C(c1ccc2cccnc2c1O)N1CCCc2c(Cl)ccc(O)c21` [Example 73, (5-Chloro-8-hydroxy-3,4-dihydroquinolin-1(2H)-yl)(8-hydroxyquinolin-7-yl)methanone], the MIC in series [1] was 0.125 µg/mL (≈ 0.352 µM); in series [2] it was 2 µg/mL (≈ 5.64 µM); in series [3] it was 1 µg/mL (≈ 2.82 µM); in series [4], 4 µg/mL (≈ 11.3 µM); in series [5], 2 µg/mL (≈ 5.64 µM); in series [6], 2 µg/mL (≈ 5.64 µM).

Take `C[C@@H]1[C@H](O)[C@@H](C)/C=C/C=C/C=C/C=C/C=C/C=C/C=C/[C@H](O[C@@H]2O[C@H](C)[C@@H](O)[C@H](N)[C@@H]2O)C[C@@H]2O[C@](O)(C[C@@H](O)C[C@@H](O)[C@H](O)CC[C@@H](O)C[C@@H](O)CC(=O)O[C@H]1C)C[C@H](O)[C@H]2C(=O)O` [Amphotericin B]: the rate of nephrotoxicity in series [7] is 31%.

For the compound `O=C(c1ccc2cccnc2c1O)N1C2CCCCC2C2CCCCC21` (stereo not shown) [Example 49, (Decahydro-1H-carbazol-9(9aH)-yl)(8-hydroxyquinolin-7-yl)methanone], the MIC was 0.25 µg/mL (≈ 0.713 µM) in series [1]; 2 µg/mL (≈ 5.71 µM) in series [2]; 2.83 µg/mL (≈ 8.08 µM) in series [3]; 1 µg/mL (≈ 2.85 µM) in series [4]; 1.41 µg/mL (≈ 4.02 µM) in series [5]; 0.71 µg/mL (≈ 2.03 µM) in series [6].

For `O=C(c1ccc2cccnc2c1O)N1CCCc2cc(F)ccc21` [Example 72, (6-Fluoro-3,4-dihydroquinolin-1(2H)-yl)(8-hydroxyquinolin-7-yl)methanone], the minimal inhibitory concentration (MIC) stood at 0.25 µg/mL (≈ 0.776 µM) in series [1]; 2 µg/mL (≈ 6.2 µM) in series [2]; 2 µg/mL (≈ 6.2 µM) in series [3]; 0.5 µg/mL (≈ 1.55 µM) in series [4]; 2 µg/mL (≈ 6.2 µM) in series [5]; 1 µg/mL (≈ 3.1 µM) in series [6].

With `O=C(c1ccc2cccnc2c1O)N1CCCc2c(F)cccc21` [Example 71, (5-Fluoro-3,4-dihydroquinolin-1(2H)-yl)(8-hydroxyquinolin-7-yl)methanone], the minimum inhibitory concentration (MIC) is 0.25 µg/mL (≈ 0.776 µM) in series [1]; 2 µg/mL (≈ 6.2 µM) in series [2]; 2.83 µg/mL (≈ 8.78 µM) in series [3]; 0.71 µg/mL (≈ 2.2 µM) in series [4]; 2 µg/mL (≈ 6.2 µM) in series [5]; 1 µg/mL (≈ 3.1 µM) in series [6].

In the case of `CN(C(=O)c1ccc2cccnc2c1O)c1ccc(Br)cc1` [Example 29, N-(4-Bromophenyl)-8-hydroxy-N-methylquinoline-7-carboxamide], the MIC worked out at 0.13 µg/mL (≈ 0.364 µM) in series [1]; 4 µg/mL (≈ 11.2 µM) in series [2]; 4 µg/mL (≈ 11.2 µM) in series [3]; 2 µg/mL (≈ 5.6 µM) in series [4]; 1 µg/mL (≈ 2.8 µM) in series [5]; 2 µg/mL (≈ 5.6 µM) in series [6].

Consider `CN(Cc1ccc(Cl)cc1)C(=O)c1ccc2cccnc2c1O` [Example 56, N-(4-Chlorobenzyl)-8-hydroxy-N-methylquinoline-7-carboxamide], for which the minimal inhibitory concentration (MIC) came out at 0.71 µg/mL (≈ 2.17 µM) in series [1]; 1.41 µg/mL (≈ 4.31 µM) in series [2]; 2 µg/mL (≈ 6.12 µM) in series [3]; 2 µg/mL (≈ 6.12 µM) in series [4]; 1 µg/mL (≈ 3.06 µM) in series [5]; 2 µg/mL (≈ 6.12 µM) in series [6].

As to `O=C(c1ccc2cccnc2c1O)N1CCC2CCCCC2C1` (stereo not shown) [Example 6, (8-Hydroxyquinolin-7-yl)(octahydroisoquinolin-2(1H)-yl)methanone], the MIC in series [1] was 0.5 µg/mL (≈ 1.61 µM); in series [2], 1.41 µg/mL (≈ 4.54 µM); in series [3] it was 2 µg/mL (≈ 6.44 µM); in series [4], 1.41 µg/mL (≈ 4.54 µM); in series [5] it was 1.41 µg/mL (≈ 4.54 µM); in series [6], 1.41 µg/mL (≈ 4.54 µM).
